Format in all cases: biochemical
In assay [1] the target is T1, PDE9A2 (Homo sapiens, UniProt O76083).
T1 construct: purchased Reaction Biology Corporation, Malvern, Pa
Nature of the assay: Phosphodiesterase enzyme screening assay, PDE9A2. The method in brief: (§1)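 Compounds were tested on commercial human PDE enzymes using a fluorescent cGMP substrate at 4.0 μM, incubated for one hour at room temperature. Values are means of four wells versus controls.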

Assay [2] addresses T2, PDE1A (Homo sapiens, UniProt P54750).
T2 construct: purchased Reaction Biology Corporation, Malvern, Pa
Nature of the assay: Phosphodiesterase enzyme screening assay, PDE1A. To be noted: value greater than 1 indicates greater selectivity for PDE9A2. The method in brief:
as §1

Assay [3] deals with T3, PDE1B (Homo sapiens, UniProt Q01064).
T3 construct: purchased Reaction Biology Corporation, Malvern, Pa
In words: Phosphodiesterase enzyme screening assay, PDE1B. Conditions: value greater than 1 indicates greater selectivity for PDE9A2. The method in brief: as §1

The mark [4] stands for this setting: IC50 band, 4.0 μM cGMP substrate, 1 hour at R.T.
Setting [5] is: ratio of IC50 values PDE1A vs PDE9A2.
The mark [6] stands for this setting: ratio of IC50 values PDE1B vs PDE9A2.
Setting [7] is: ratio of IC50 values, PDE1A versus PDE9A2.
[8] abbreviates: ratio of IC50 values, PDE1B versus PDE9A2.

The text below walks through data of patent US9969742B2, “Imidazotriazinone compounds” (Ironwood Pharmaceuticals, Inc., priority 2012, dated 2018).

Where two headings read alike, the source gives them in different places. A value given as a limit tells only on which side of the number the result lay.

T3 sequence (Q01064 whole entry): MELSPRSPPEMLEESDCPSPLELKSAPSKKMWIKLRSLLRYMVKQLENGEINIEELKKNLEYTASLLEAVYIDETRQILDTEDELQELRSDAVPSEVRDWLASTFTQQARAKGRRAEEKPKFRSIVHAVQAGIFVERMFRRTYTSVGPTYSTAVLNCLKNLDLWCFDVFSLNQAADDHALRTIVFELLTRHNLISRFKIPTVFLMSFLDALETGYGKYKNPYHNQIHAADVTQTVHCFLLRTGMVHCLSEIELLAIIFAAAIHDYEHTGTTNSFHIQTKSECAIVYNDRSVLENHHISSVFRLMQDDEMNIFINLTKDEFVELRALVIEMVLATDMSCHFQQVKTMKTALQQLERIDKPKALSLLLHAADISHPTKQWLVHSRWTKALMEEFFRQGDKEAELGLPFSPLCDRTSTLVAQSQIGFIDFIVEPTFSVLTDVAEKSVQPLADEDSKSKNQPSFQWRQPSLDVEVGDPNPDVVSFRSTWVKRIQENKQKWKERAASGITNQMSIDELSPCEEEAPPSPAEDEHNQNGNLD
T1 sequence (O76083 1-533 isoform O76083-2): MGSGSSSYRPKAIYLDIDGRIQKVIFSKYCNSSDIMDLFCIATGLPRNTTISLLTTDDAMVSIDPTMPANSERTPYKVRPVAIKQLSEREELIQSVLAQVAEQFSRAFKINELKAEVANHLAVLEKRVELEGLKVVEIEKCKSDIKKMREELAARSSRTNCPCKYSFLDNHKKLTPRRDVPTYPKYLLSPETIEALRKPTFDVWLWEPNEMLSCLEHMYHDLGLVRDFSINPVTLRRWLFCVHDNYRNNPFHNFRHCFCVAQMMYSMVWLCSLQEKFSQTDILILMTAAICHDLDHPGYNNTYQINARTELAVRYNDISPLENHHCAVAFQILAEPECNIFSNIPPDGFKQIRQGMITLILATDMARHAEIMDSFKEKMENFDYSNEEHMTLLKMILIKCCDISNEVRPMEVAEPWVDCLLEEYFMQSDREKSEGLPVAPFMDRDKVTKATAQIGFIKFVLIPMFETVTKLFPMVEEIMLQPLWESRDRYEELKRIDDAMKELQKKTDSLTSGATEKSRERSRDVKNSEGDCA
T2 sequence (P54750 whole entry): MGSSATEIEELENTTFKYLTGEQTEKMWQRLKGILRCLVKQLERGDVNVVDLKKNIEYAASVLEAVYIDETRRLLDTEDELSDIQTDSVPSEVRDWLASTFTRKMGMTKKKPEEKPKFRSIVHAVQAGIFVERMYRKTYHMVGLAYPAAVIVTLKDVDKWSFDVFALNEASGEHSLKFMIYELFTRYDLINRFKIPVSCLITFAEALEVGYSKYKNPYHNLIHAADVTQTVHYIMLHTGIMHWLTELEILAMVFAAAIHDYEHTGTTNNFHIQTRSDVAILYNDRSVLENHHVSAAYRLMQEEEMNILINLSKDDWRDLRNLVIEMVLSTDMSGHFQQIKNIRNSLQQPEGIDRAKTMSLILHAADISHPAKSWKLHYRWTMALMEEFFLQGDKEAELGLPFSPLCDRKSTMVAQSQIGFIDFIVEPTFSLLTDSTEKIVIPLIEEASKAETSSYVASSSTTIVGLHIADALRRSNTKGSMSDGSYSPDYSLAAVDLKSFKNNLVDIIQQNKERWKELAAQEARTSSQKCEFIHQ

As for `CC1CN(Cc2cccnc2)CC1c1nn2c(C3CCC(F)(F)CC3)ncc2c(=O)[nH]1` (single isomer, unassigned; (+)) [(+)-7-(4,4-difluorocyclohexyl)-2-((3,4-trans)-4-methyl-1-(pyridin-3-ylmethyl)pyrrolidin-3-yl)imidazo[5,1-f][1,2,4]triazin-4(3H)-one], the IC50 (as a rule, the point on the concentration scale where inhibition reaches its midpoint) in assay [1] (setting [4]) was less than 1000 nM. In assay [2] (setting [5]), the “PDE1A selectivity (versus PDE9A2)” value was 181. Besides, the “PDE1B selectivity (versus PDE9A2)” value in assay [3] (setting [6]) came out at 409.
With `Cc1cc(F)c(F)cc1-c1ncc2c(=O)[nH]c(C3CN(Cc4ccc(F)cc4)CC3C)nn12` (single isomer, unassigned; (+)) [(+)-7-(4,5-difluoro-2-methylphenyl)-2-((3,4-trans)-1-(4-fluorobenzyl)-4-methylpyrrolidin-3-yl)imidazo[5,1-f][1,2,4]triazin-4(3H)-one], in assay [1] (read-out: Band (PDE9A2 IC50)), the IC50 is less than 1000 nM. Also, in assay [2] (setting [7]), the “PDE1A selectivity (versus PDE9A2)” value came out at 232. Moreover, the “PDE1B selectivity (versus PDE9A2)” value in assay [3] (setting [8]) is 179.
The corresponding values for `Cc1cc(F)c(F)cc1-c1ncc2c(=O)[nH]c(C3CN(Cc4cn5ccccc5n4)CC3C)nn12` (single isomer, unassigned; (+)) [(+)-7-(4,5-difluoro-2-methylphenyl)-2-((3,4-trans)-1-(imidazo[1,2-a]pyridin-2-ylmethyl)-4-methylpyrrolidin-3-yl)imidazo[5,1-f][1,2,4]triazin-4(3H)-one] are less than 1000 nM, 2510 and 9350.
Take `Cc1cc(F)c(F)cc1-c1ncc2c(=O)[nH]c(C3CN(Cc4ncccn4)CC3C)nn12` (single isomer, unassigned; (+)) [(+)-7-(4,5-difluoro-2-methylphenyl)-2-((3,4-trans)-4-methyl-1-(pyrimidin-2-ylmethyl)pyrrolidin-3-yl)imidazo[5,1-f][1,2,4]triazin-4(3H)-one]: the IC50 in assay [1] (read-out: Band (PDE9A2 IC50)) is less than 1000 nM. In addition, the “PDE1A selectivity (versus PDE9A2)” value in assay [2] (setting [7]) is 44. In addition, the “PDE1B selectivity (versus PDE9A2)” value in assay [3] (setting [8]) turned out to be 85.
In assay [1] (setting [4]), `Cc1cc(F)ccc1-c1ncc2c(=O)[nH]c(C3CN(Cc4ccc(F)cc4)CC3C)nn12` (single isomer, unassigned; (+)) [(+)-7-(4-fluoro-2-methylphenyl)-2-((3,4-trans)-1-(4-fluorobenzyl)-4-methylpyrrolidin-3-yl)imidazo[5,1-f][1,2,4]triazin-4(3H)-one] returned an IC50 of less than 1000 nM. In addition, in assay [2] (setting [5]), the “PDE1A selectivity (versus PDE9A2)” value stood at 345. Also, the “PDE1B selectivity (versus PDE9A2)” value in assay [3] (setting [6]) is 493.
Take `Cc1cc(F)ccc1-c1ncc2c(=O)[nH]c(C3CN(Cc4cn5ccccc5n4)CC3C)nn12` (single isomer, unassigned; (+)) [(+)-7-(4-fluoro-2-methylphenyl)-2-((3,4-trans)-1-(imidazo[1,2-a]pyridin-2-ylmethyl)-4-methylpyrrolidin-3-yl)imidazo[5,1-f][1,2,4]triazin-4(3H)-one]: in assay [1] (setting [4]), the IC50 was less than 1000 nM. Further, in assay [2] (setting [5]), the “PDE1A selectivity (versus PDE9A2)” value amounted to 339. For the same compound, in assay [3] (setting [6]), the “PDE1B selectivity (versus PDE9A2)” value came to 792.
The corresponding values for `Cc1cc(F)ccc1-c1ncc2c(=O)[nH]c(C3CN(Cc4cnccn4)CC3C)nn12` (single isomer, unassigned; (+)) [(+)-7-(4-fluoro-2-methylphenyl)-2-((3,4-trans)-4-methyl-1-(pyrazin-2-ylmethyl)pyrrolidin-3-yl)imidazo[5,1-f][1,2,4]triazin-4(3H)-one] are less than 1000 nM, 342 and 393.
As for `Cc1cc(F)ccc1-c1ncc2c(=O)[nH]c(C3CN(Cc4ccccn4)CC3C)nn12` (single isomer, unassigned; (+)) [(+)-7-(4-fluoro-2-methylphenyl)-2-((3,4-trans)-4-methyl-1-(pyridin-2-ylmethyl)pyrrolidin-3-yl)imidazo[5,1-f][1,2,4]triazin-4(3H)-one], in assay [1] (setting [4]), the IC50 is less than 1000 nM. Moreover, in assay [2] (setting [5]), the “PDE1A selectivity (versus PDE9A2)” value is 5780. Also, the “PDE1B selectivity (versus PDE9A2)” value in assay [3] (setting [6]) is recorded as 374.
The corresponding values for `Cc1cc(F)ccc1-c1ncc2c(=O)[nH]c(C3CN(Cc4cccnc4)CC3C)nn12` (single isomer, unassigned; (+)) [(+)-7-(4-fluoro-2-methylphenyl)-2-((3,4-trans)-4-methyl-1-(pyridin-3-ylmethyl)pyrrolidin-3-yl)imidazo[5,1-f][1,2,4]triazin-4(3H)-one] are less than 1000 nM, 452 and 492.
In the case of `CC1CN(Cc2cn3ccccc3n2)CC1c1nn2c(-c3ccc(F)cc3)ncc2c(=O)[nH]1` (single isomer, unassigned; (+)) [(+)-7-(4-fluorophenyl)-2-((3,4-trans)-1-(imidazo[1,2-a]pyridin-2-ylmethyl)-4-methylpyrrolidin-3-yl)imidazo[5,1-f][1,2,4]triazin-4(3H)-one], the IC50 in assay [1] (read-out: Band (PDE9A2 IC50)) is less than 1000 nM. For the same compound, in assay [2] (setting [7]), the “PDE1A selectivity (versus PDE9A2)” value is listed as 120. Also, in assay [3] (setting [8]), the “PDE1B selectivity (versus PDE9A2)” value stood at 209.
Regarding `CC1CN(Cc2cnccn2)CC1c1nn2c(-c3ccc(F)cc3)ncc2c(=O)[nH]1` (single isomer, unassigned; (+)) [(+)-7-(4-fluorophenyl)-2-((3,4-trans)-4-methyl-1-(pyrazin-2-ylmethyl)pyrrolidin-3-yl)imidazo[5,1-f][1,2,4]triazin-4(3H)-one], in assay [1] (read-out: Band (PDE9A2 IC50)), the IC50 is less than 1000 nM. For the same compound, the “PDE1A selectivity (versus PDE9A2)” value in assay [2] (setting [7]) turned out to be 9. Besides, the “PDE1B selectivity (versus PDE9A2)” value in assay [3] (setting [8]) turned out to be 8.
Compound `Cc1ccc(F)cc1-c1ncc2c(=O)[nH]c(C3CN(Cc4ccc(F)cc4)CC3C)nn12` (single isomer, unassigned; (+)) [(+)-7-(5-fluoro-2-methylphenyl)-2-((3,4-trans)-1-(4-fluorobenzyl)-4-methylpyrrolidin-3-yl)imidazo[5,1-f][1,2,4]triazin-4(3H)-one] returned an IC50 in assay [1] (setting [4]) of less than 1000 nM. Besides, the “PDE1A selectivity (versus PDE9A2)” value in assay [2] (setting [5]) was found to be 1738. The “PDE1B selectivity (versus PDE9A2)” value in assay [3] (setting [6]) was 393.
Taken in the same sequence, the figures for `Cc1ccc(F)cc1-c1ncc2c(=O)[nH]c(C3CN(Cc4cn5ccccc5n4)CC3C)nn12` (single isomer, unassigned; (+)) [(+)-7-(5-fluoro-2-methylphenyl)-2-((3,4-trans)-1-(imidazo[1,2-a]pyridin-2-ylmethyl)-4-methylpyrrolidin-3-yl)imidazo[5,1-f][1,2,4]triazin-4(3H)-one] were less than 1000 nM, 1437 and 1427.
As to `Cc1ccc(F)cc1-c1ncc2c(=O)[nH]c(C3CN(Cc4cnccn4)CC3C)nn12` (single isomer, unassigned; (+)) [(+)-7-(5-fluoro-2-methylphenyl)-2-((3,4-trans)-4-methyl-1-(pyrazin-2-ylmethyl)pyrrolidin-3-yl)imidazo[5,1-f][1,2,4]triazin-4(3H)-one], in assay [1] (setting [4]), the concentration for half-maximal inhibition (IC50) was less than 1000 nM. Also, the “PDE1A selectivity (versus PDE9A2)” value in assay [2] (setting [5]) is listed as 85. Moreover, the “PDE1B selectivity (versus PDE9A2)” value in assay [3] (setting [6]) was determined as 74.
Taken in the same sequence, the figures for `Cc1ccc(F)cc1-c1ncc2c(=O)[nH]c(C3CN(Cc4ccccn4)CC3C)nn12` (single isomer, unassigned; (+)) [(+)-7-(5-fluoro-2-methylphenyl)-2-((3,4-trans)-4-methyl-1-(pyridin-2-ylmethyl)pyrrolidin-3-yl)imidazo[5,1-f][1,2,4]triazin-4(3H)-one] were less than 1000 nM, 560 and 277.
As to `Cc1ccc(F)cc1-c1ncc2c(=O)[nH]c(C3CN(Cc4cccnc4)CC3C)nn12` (single isomer, unassigned; (+)) [(+)-7-(5-fluoro-2-methylphenyl)-2-((3,4-trans)-4-methyl-1-(pyridin-3-ylmethyl)pyrrolidin-3-yl)imidazo[5,1-f][1,2,4]triazin-4(3H)-one], in assay [1] (setting [4]), the IC50 is less than 1000 nM. Besides, the “PDE1A selectivity (versus PDE9A2)” value in assay [2] (setting [5]) is 770. Besides, in assay [3] (setting [6]), the “PDE1B selectivity (versus PDE9A2)” value is 505.
As for `CC1CN(Cc2ccc(F)cc2)CC1c1nn2c(C3CCCC3)ncc2c(=O)[nH]1` (single isomer, unassigned; (+)) [(+)-7-cyclopentyl-2-((3,4-trans)-1-(4-fluorobenzyl)-4-methylpyrrolidin-3-yl)imidazo[5,1-f][1,2,4]triazin-4(3H)-one], the IC50 in assay [1] (read-out: Band (PDE9A2 IC50)) is less than 1000 nM. The “PDE1A selectivity (versus PDE9A2)” value in assay [2] (setting [7]) is reported as 41. Besides, in assay [3] (setting [8]), the “PDE1B selectivity (versus PDE9A2)” value stood at 104.
The corresponding values for `CC1CN(Cc2cn3ccccc3n2)CC1c1nn2c(C3CCCC3)ncc2c(=O)[nH]1` (single isomer, unassigned; (+)) [(+)-7-cyclopentyl-2-((3,4-trans)-1-(imidazo[1,2-a]pyridin-2-ylmethyl)-4-methylpyrrolidin-3-yl)imidazo[5,1-f][1,2,4]triazin-4(3H)-one] are less than 1000 nM, 57 and 125.
The corresponding values for `CC1CN(Cc2ncccn2)CC1c1nn2c(C3CCCC3)ncc2c(=O)[nH]1` (single isomer, unassigned; (+)) [(+)-7-cyclopentyl-2-((3,4-trans)-4-methyl-1-(pyrimidin-2-ylmethyl)pyrrolidin-3-yl)imidazo[5,1-f][1,2,4]triazin-4(3H)-one] are less than 1000 nM, 60 and 45.
